Data published in patent US20110192396A1, “PHARMACEUTICAL COMPOSITION FOR PREVENTING OR TREATING CHRONIC OBSTRUCTIVE PULMONARY DISEASE” (DAEWOONG CO., LTD., priority 2008, published 2011).

How the values were obtained:
[1] = test system: PPE-induced emphysema model; assay: PPE-induced rat emphysema model, histopathological examination of lung and trachea; format: in vivo, Sprague-Dawley rats
Method: 6-week old male Sprague-Dawley rats (Japan SLC, Inc) having an average weight ranging from 200 to 250 g were accommodated for 1 week to prepare 7-week old rats. The rats were raised in individual ventilated cage (IVC) racks (GR900 plus rat cage, Polysulfone, 355 W×405 I×230 H mm) at a constant temperature (22±3° C.) at a constant relative humidity (55±15%) using fluorescent lamps (lights are on 08:00 to 20:00) for 12 hours, and food and water were fed ad libitum (solid feed 5L79, Orient Co., Ltd.). 120 U/kg, 1 mL/kg of pig pancreas elastase (PPE, Merck 324682) was administered once by intratracheal instillation to rats anesthetized with isoflurane. 1 mL/kg of 0.9% saline was administered once by intratracheal instillation to rats in the group in which emphysema was not induced. In order to uniformly administer test article into lung cavity, the same amount of air as the administered substances was administered during the intratracheal instillation. […] After 7 weeks from the PPE administration, the rats were anesthetized with isoflurane, and the lung and the trachea were isolated and fixed using 10% neutral formalin. Then histopathological examination of the lung and the trachea were performed and microscopic images were obtained. The test results were represented as average ±standard deviation. In order to detect a test group statistically significant from a control group, the results were statistically tested using one way ANOVA, and significance was analyzed using a multiple comparison method. […] In addition, FIGS. 7 and 8 illustrated the results of the tissue pathological tests of tracheas and lungs with a table.

[2] = test system: MUC5AC gene expression in NCI-H292 cells; assay: Suppression of MUC5AC mucus gene expression in PA-LPS/TGF-α-treated NCI-H292 cells (real time PCR); format: cell-based, human; conditions: 50 ng/mL EGF; NCI-H292 cells pre-treated with PA-LPS and TGF-α for 6 hours; vs control with PA-LPS and TGF-α only
Method: NCI-H292 cells (ATCC, CRL-1848) were divided into a 6-well plate such that the number of the NCI-H292 cells per well was 10^6. The NCI-H292 cells were incubated in a 5% CO2 incubator at 37° C. for one day. The NCI-H292 cells were incubated in a serum free medium for one day, and then treated with 100 mg/mL of Pseudomonas aeruginosa lipopolysaccharide (PA-LPS, Sigma L8643) and 10 ng/mL of a transforming growth factor-alpha (TGF-α R&D systems 239-a-100) at the same time for 6 hours to induce overexpression of MUC5AC mucus. The PA-LPS and TGF-α were removed, and epidermal growth factors (EGFs) having different concentrations were added to the NCI-H292 cells. […]
RNA was isolated using a kit manufactured by QIAGEN (RNeasy Plus Mini Kit, 74134) according to the manuals provided by the manufacturer in order to isolate entire RNA. Absorbance of the isolated RNA was measured using a spectrophotometer at a wavelength of 260 nm to quantitatively analyze RNA. […]
A SYBR green assay was performed by adding cDNA, a forward primer, and a reverse primer to 12.5 mL of a SYBR green PCR master mix (Applied Biosystems, 4309155) such that the total volume of the mixture was set to 25 mL. […] The determined concentrations of the primers for MUC5AC, ICAM-1, RPL1 were respectively 900 nM, and the concentration β-ACT thereof was 300 nM. […]

MLE-12 cells = assay: Protection of alveolar cells from elastase cell toxicity, neutral red uptake (NRU) assay; format: cell-based, murine; conditions: 100 μg/mL EGF; 2 U/mL elastase; elastase only = 100%, medium only = 0% cell toxicity
Method: MLE-12 cells were divided into a 96-well plate such that the number of MLE-12 cells per well was […]. The MLE-12 cells were incubated in 5% CO2 incubator at 37° C. for one day. […] A neutral red uptake (NRU) assay was performed using a neutral red that dyes only living cells to measure the degree of cell death. […] The cells were fixed using a fixing solution (1% formaldehyde, 1% CaCl2) for 1 minute, and the neutral red dye reagent was extracted using a chromogenic solution including 50% ethanol and 1% glacial acetic acid. Then, light absorbance was measured at a wavelength of 540 nm.

[3] = G3: 0.1 mg/kg EGF intratracheal instillation, once a week for 3 weeks, rats

Substance: EGF: recombinant proteins having the same amino acid sequence as natural human epidermal growth factor (hEGF); 53 amino acids, SEQ ID NO: 1
- degree and number of enlargement and breakdown of alveoli compared with the control group of PPE-induced emphysema model ([1]; G3, group with emphysema treated with EGF): reduced
- cases with mild breakdown of alveoli [1, 3]: 3 cases
- cases with mild enlargement of alveoli [1, 3]: 3 cases
- cases with moderate breakdown of alveoli [1, 3]: 1 case
- cases with moderate enlargement of alveoli [1, 3]: 1 case
- cases with very mild breakdown of alveoli [1, 3]: 1 case
- cases with very mild enlargement of alveoli [1, 3]: 2 cases
- cases with very mild histiocytosis [1, 3]: 1 case
- reduction of expression of MUC5AC [2]: 65%
- reduction of cell toxicity (MLE-12 cells): about 15%
